Columns and labels:
Assay in all cases: relative viability (nuclei count vs DMSO), 5 days (fraction); higher = more cells survive
[1] = compound: C1/C(=C\C2=CC=CS2)/C(=O)/C(=C/C3=CC=CS3)/C1 + Cc1nc(NC(=O)N2CCC[C@H]2C(N)=O)sc1-c1ccnc(C(C)(C)C(F)(F)F)c1 [Alpelisib] (partner 2 µM)
Procedure, shortened: (§1)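 Lung cancer cell lines, seeded in 1536-well plates, were treated the following day by pin tool with a single drug or with five library-drug doses (not always all listed) in √10 steps on top of a fixed anchor-drug dose. Cells were fixed and nuclei stained in one step after 5 days, and nuclei were counted. Relative viability is the nuclei count for treated wells divided by that for vehicle wells, reported as medians of duplicate plates.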

[2] = compound: C1/C(=C\C2=CC=CS2)/C(=O)/C(=C/C3=CC=CS3)/C1 + Nc1nc2[nH]cc(CCc3ccc(C(=O)N[C@@H](CCC(=O)O)C(=O)O)cc3)c2c(=O)[nH]1 [Pemetrexed] (partner 0.2 µM)
Procedure, shortened: as §1

[3] = compound: C1=CC(=CC=C1C2=CC(=C(S2)NC(=O)N)C(=O)N)F [TPCA-1] + CC1(C)CCC(c2ccc(Cl)cc2)=C(CN2CCN(c3ccc(C(=O)NS(=O)(=O)c4ccc(N[C@H](CCN5CCOCC5)CSc5ccccc5)c(S(=O)(=O)C(F)(F)F)c4)cc3)CC2)C1 [Navitoclax] (partner 0.5 µM)
Procedure, shortened: as §1

[4] = compound: C1=CC(=CC=C1C2=CC(=C(S2)NC(=O)N)C(=O)N)F [TPCA-1] + CS(=O)(=O)CCNCc1ccc(-c2ccc3ncnc(Nc4ccc(OCc5cccc(F)c5)c(Cl)c4)c3c2)o1 [Lapatinib] (partner 2 µM)
Procedure, shortened: as §1

## UMC-11
[1]; first compound 0.2 µM
  relative viability: 1.04
[1]; first compound 0.6325 µM
  relative viability: 1.1
[1]; first compound 2 µM
  relative viability: 0.847
[1]; first compound 20 µM
  relative viability: 0.952
[2]; first compound 0.2 µM
  relative viability: 0.816
[2]; first compound 0.6325 µM
  relative viability: 0.817
[2]; first compound 2 µM
  relative viability: 0.789
[2]; first compound 6.325 µM
  relative viability: 0.563
[2]; first compound 20 µM
  relative viability: 0.824
[3]; first compound 0.04 µM
  relative viability: 0.354
[3]; first compound 0.1265 µM
  relative viability: 0.335
[3]; first compound 0.4 µM
  relative viability: 0.394
[3]; first compound 1.265 µM
  relative viability: 0.415
[3]; first compound 4 µM
  relative viability: 0.253
[4]; first compound 0.04 µM
  relative viability: 1.18
[4]; first compound 0.1265 µM
  relative viability: 0.754
[4]; first compound 0.4 µM
  relative viability: 0.69
[4]; first compound 1.265 µM
  relative viability: 0.956
[4]; first compound 4 µM
  relative viability: 0.178

From the supplement of paper PMC10307832
